“And” between values parts separate entries of the source, which are not always exact repeats. Equal entries are not always repeated.
Legend:
[1] = biological target: T1, Sterol O-acyltransferase 1 (Rattus norvegicus, UniProt O70536); assay: In vitro inhibitory activity against acyl coenzyme A:cholesterol acyltransferase 1 in microsomes of rat liver
T1 sequence (O70536 whole entry): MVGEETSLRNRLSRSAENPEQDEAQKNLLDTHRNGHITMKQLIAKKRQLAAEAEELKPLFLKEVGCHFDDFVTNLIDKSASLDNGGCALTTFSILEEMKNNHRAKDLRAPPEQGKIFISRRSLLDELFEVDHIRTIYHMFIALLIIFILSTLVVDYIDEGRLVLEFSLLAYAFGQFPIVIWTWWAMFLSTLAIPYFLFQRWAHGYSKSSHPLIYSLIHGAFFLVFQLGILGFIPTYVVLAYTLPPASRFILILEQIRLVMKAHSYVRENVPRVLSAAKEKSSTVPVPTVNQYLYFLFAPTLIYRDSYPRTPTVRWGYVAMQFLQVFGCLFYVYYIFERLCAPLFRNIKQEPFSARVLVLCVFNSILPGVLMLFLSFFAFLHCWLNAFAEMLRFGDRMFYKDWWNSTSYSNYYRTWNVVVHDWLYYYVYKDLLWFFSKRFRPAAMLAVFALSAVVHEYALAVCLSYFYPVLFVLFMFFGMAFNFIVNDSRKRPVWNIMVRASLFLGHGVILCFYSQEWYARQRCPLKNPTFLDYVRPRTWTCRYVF

[2] = biological target: T2, Sterol O-acyltransferase 1 (Rattus norvegicus) (UniProt O70536); assay: Chronic in vivo activity was measured by the concentration of high density lipoproteins (HDL) in cholesterol fed rats; assay type: functional, organism-based
T2 sequence (whole entry): T1 sequence (O70536 whole entry)

[3] = biological target: T2, Sterol O-acyltransferase 1 (Rattus norvegicus); assay: Chronic in vivo activity was measured by the total cholesterol concentration levels in cholesterol fed rats; assay type: functional, organism-based
[4] = biological target: T2, Sterol O-acyltransferase 1 (Rattus norvegicus); assay: Acute in vivo activity was measured by the total plasma cholesterol concentration levels(TC) at dose 50 mg/kg; assay type: functional, organism-based; design: dose 50 mg/kg
[5] = biological target: T2, Sterol O-acyltransferase 1 (Rattus norvegicus); assay: Chronic in vivo activity was measured by the total cholesterol concentration levels in Cholesterol-Fed Rats; assay type: functional, organism-based
[6] = biological target: T2, Sterol O-acyltransferase 1 (Rattus norvegicus); assay: Acute in vivo activity was measured by the total plasma cholesterol concentration levels(TC) at dose 3 mg/kg; assay type: functional, organism-based; design: dose 3 mg/kg

Row | Delta TC [6] | Structure (SMILES) | IC50 [1] [µM] | Delta HDL [2] [%] | Delta TC [3] | Delta TC [4] [%] | Delta TC [5] [%]
1 | – | CC(C)c1cccc(C(C)C)c1OC(=O)NS(=O)(=O)Nc1ccccc1 | 38.1 | 240 | -33% | -55 | –
2 | – | CC(C)(C)c1cccc(C(C)(C)C)c1OC(=O)NS(=O)(=O)NC(c1ccccc1)c1ccccc1 | 11.4 | 50 | – | -35 | -46
3 | – | CC(C)c1cccc(C(C)C)c1NC(=O)NS(=O)(=O)N(Cc1ccccc1)C(C)C | 0.4 | 150 | -41% | -60 | –
4 | – | CC(C)c1cccc(C(C)C)c1NC(=O)NS(=O)(=O)N(C(C)C)C(C)C | 0.24 | 83 | -38% | -59 | –
5 | – | Cc1cc(C(C)(C)C)c(OC(=O)NS(=O)(=O)NCC(c2ccccc2)c2ccccc2)c(C(C)(C)C)c1 | 24.4 | 144 | -51% | -54 | –
6 | – | Cc1cc(C(C)(C)C)c(OC(=O)NS(=O)(=O)NC(c2ccccc2)c2ccccc2)c(C(C)(C)C)c1 | 11.5 | 100 | -25% | -42 | –
7 | – | CC(C)c1cccc(C(C)C)c1NC(=O)NS(=O)(=O)Nc1c(C(C)C)cccc1C(C)C | 11 | 80 | -37% | -54 | –
8 | – | CC(C)c1cccc(C(C)C)c1NS(=O)(=O)NC(=O)Oc1c(C(C)C)cccc1C(C)C | 25.8 | 388 | -9% | -65 | –
9 | – | Cc1cc(C(C)(C)C)c(OC(=O)NS(=O)(=O)Nc2c(C(C)C)cccc2C(C)C)c(C(C)(C)C)c1 | 13.5 | 156 | -38% | -56 | –
10 | – | CC(C)c1cccc(C(C)C)c1NS(=O)(=O)NC(=O)Oc1c(C(C)(C)C)cccc1C(C)(C)C | 16.8 | 200 | – | -57 | -28
11 | -64% and -52% | CCCCN(CCCC)S(=O)(=O)NC(=O)Nc1c(C(C)C)cccc1C(C)C | – | – | -52% and -40% | -66 | –

Reference: ChEMBL document CHEMBL1129522, “Inhibitors of acyl-CoA:cholesterol O-acyltransferase. 17. Structure-activity relationships of several series of compounds derived from N-chlorosulfonyl isocyanate” (J Med Chem, 1996)
